System: not listed separately
Test: Liquid skin model (reaction with L-lysine, L*a*b* values)
Settings: 1 mmol compound + 1 mmol L-lysine, phosphate-buffered water (pH=7)/ethylene glycol, after 24 hours
Method: The mixture is subsequently made up to the mark with a mixture of 6 ml of phosphate-buffered water (pH=7) and 94 ml of ethylene glycol. The reaction is observed with vigorous stirring, and the L*a*b* values are determined after 24 hours.

Row | Structure (SMILES) | L* | a* | b*
1 | CC1(C)OC2OC3C(O)C(=O)OC3C2O1 (stereo not shown) [Compound Ia, glucuronolactone acetonide] | 82.6 | 29.4 | 103.7
2 | COC1OC2C(O)C(=O)OC2C1O (stereo not shown) [Compound Ib] | 81.1 | 30.8 | 103.8
3 | O=C1OC2C3OC(c4ccccc4)OC3OC2C1O [Compound Ic, 1,2-O—(R,S)-(Benzylidene)-α-D-glucofuranurono-6,3-lactone] | 68.0 | 55.2 | 109.6
4 | COc1ccc(C2OC3OC4C(O)C(=O)OC4C3O2)cc1 [Compound Ie, 1,2-O—(R,S)-(4-Methoxybenzylidene)-α-D-glucofuranurono-6,3-lactone] | 76.4 | 39.1 | 106.7
5 | COc1cc(C2OC3OC4C(O)C(=O)OC4C3O2)ccc1O [Compound Ig, 1,2-O—(R,S)-(4-hydroxy-3-methoxybenzylidene)-α-D-glucofuranurono-6,3-lactone] | 80.9 | 32.0 | 100.0
6 | O=C(CO)CO [DHA, 1,3-dihydroxyacetone, reference compound] | 46.7 | 27.2 | 69.4
7 | O=C(CO)[C@H](O)CO [Erythrulose, reference compound] | 92.6 | 4.8 | 35.8
8 | O=C[C@H](O)[C@H]1OC(=O)[C@@H](O)[C@H]1O [Glucuronolactone] | 96.1 | 4.3 | 45.9

Same assay, conditions: after 24 hours

Row | Structure (SMILES) | L values compared with erythrulose (darker colour)
9 | CC1(C)OC2OC3C(O)C(=O)OC3C2O1 (stereo not shown) [Compound Ia, glucuronolactone acetonide] | lower L values than erythrulose
10 | COC1OC2C(O)C(=O)OC2C1O (stereo not shown) [Compound Ib] | lower L values than erythrulose
11 | O=C1OC2C3OC(c4ccccc4)OC3OC2C1O [Compound Ic, 1,2-O—(R,S)-(Benzylidene)-α-D-glucofuranurono-6,3-lactone] | lower L values than erythrulose
12 | COc1ccc(C2OC3OC4C(O)C(=O)OC4C3O2)cc1 [Compound Ie, 1,2-O—(R,S)-(4-Methoxybenzylidene)-α-D-glucofuranurono-6,3-lactone] | lower L values than erythrulose
13 | COc1cc(C2OC3OC4C(O)C(=O)OC4C3O2)ccc1O [Compound Ig, 1,2-O—(R,S)-(4-hydroxy-3-methoxybenzylidene)-α-D-glucofuranurono-6,3-lactone] | lower L values than erythrulose

System: not listed separately
Test: Colouring test on merino wool balls
Settings: 1 mmol in 100 ml buffer (pH 7)/ethylene glycol 6/94, RT, 24 h, then washed and dried
Method: 1 mmol of each of DHA and the glucuronolactone derivatives are weighed out into a 100 ml conical flask with ground-glass joint:
(2) Glucuronolactone: 176 mg
(3) Compound (Ia): 216 mg
(4) Compound (Ic): 264 mg
A merino wool ball with the size of a grape and a magnetic stirrer are then added to each conical flask.
A mixture of 6% by vol. of buffer (ph7) and 94% by vol. of ethylene glycol is then prepared, 100 ml of this mixture are added to each conical flask and stirred at RT for 24 h.
After 24 h, the wool balls are washed firstly with water, then with warm washing-powder solution and again with water and dried.
This colouring result can also be applied to hair, since merino wool, like hair, is built up from proteins (keratins) and the outermost layer is in each case the cuticle.

Row | Structure (SMILES) | colouration of wool samples compared with the untreated sample
14 | CC1(C)OC2OC3C(O)C(=O)OC3C2O1 (stereo not shown) [Compound Ia, glucuronolactone acetonide] | yellow colouration
15 | O=C1OC2C3OC(c4ccccc4)OC3OC2C1O [Compound Ic, 1,2-O—(R,S)-(Benzylidene)-α-D-glucofuranurono-6,3-lactone] | yellow colouration
16 | O=C(CO)CO [DHA, 1,3-dihydroxyacetone, reference compound] | no colouration
17 | O=C[C@H](O)[C@H]1OC(=O)[C@@H](O)[C@H]1O [Glucuronolactone] | no colouration

System: not listed separately
Test: Stability/odour of test formulations on storage
Type: physicochemical
Settings: formulation with 5% active compound (mixture: 5% DHA + 1% compound Ia), stored at 40° C. for 8 weeks
Method: In order to compare the odour and stability of glucuronolactone, glucuronolactone acetonide of the formula (Ia), DHA and a combination in a formulation, 5 formulations are prepared: one without active compound as placebo, one with 5% of glucuronolactone, one with 5% of compound (Ia), one with 5% of DHA and one with 5% of DHA+1% of compound (Ia) (denoted by “active compound” in the recipe).
The following recipe is used:
Sources of Supply: (1) Sasol Germany GmbH, (2) Cognis GmbH, (3) Hansen&Rosenthal KG, (4) Merck KGaA/Rona®, (5) Alfa Aesar Preparation of the Formulations: […]
Heat phase A, heat phase B, prepare phase C on a magnetic stirrer (first introduce water, then add thickener), then homogenise phase C with phase B using an Ultra-Turrax and at the same time slowly add phase A. Subsequently add phase D and likewise homogenise well.
In the case of the 5th cream (with DHA and glucuronolactone acetonide), adjust the water proportion correspondingly.

Row | Structure (SMILES) | odour of the formulation
18 | CC1(C)OC2OC3C(O)C(=O)OC3C2O1 (stereo not shown) [Compound Ia, glucuronolactone acetonide] | produce no odour
19 | O=C(CO)CO [DHA, 1,3-dihydroxyacetone, reference compound] | developed the typical DHA odour
20 | O=C[C@H](O)[C@H]1OC(=O)[C@@H](O)[C@H]1O [Glucuronolactone] | produce no odour

System: histological explants from the lower abdomen tissue of a person
Test: Ex-vivo study on skin explants, chromametric measurement (ITA)
Set-up: species or system human
Settings: 1% solution, 30 μl on 5 consecutive days, 2 h, day 5
Method: 24 histological explants having an average diameter of 10 mm are prepared from the lower abdomen tissue of a person. The pieces of tissue are kept in BEM medium (BIO-EC's explants medium) at 37° C. in a humid atmosphere comprising 5% of CO2.
The tissue is divided into 8 batches of 3 explants each:
30 μl of the substance solutions are applied on 5 consecutive days using a round filter paper and left to act for 2 h. On days 0, 5 and 8, tissue sections with a thickness of 5 μm are prepared from the explants. These sections are investigated morphologically and measured chromametrically.
The colour measurements are carried out using a Minolta CR-300 Chroma-meter, and the L, a and b values are read off correspondingly on the instrument.
Principle of the Chromametric Measurement:
The following parameters are set:
In 1931, a test series was carried out by the CIE (Commision Internationale de L'Eclairage), where the “2-degree standard observer” was defined. A colour area is present here which is viewed at a viewing angle of 2 degrees. This viewing angle is used as standard in the chromametric measurement. • Irradiation source D65, corresponding to daylight • Region of the measurement: 3 mm • Parameters used: L* a* b*
The sample is placed on the bearing rail with the epidermis facing downwards. The irradiation is carried out from the underside through the area indicated (3 mm).
In the colorimetric determinations <<L a b>>, the L value determines the contrast of the skin. If the L value drops, the skin appears darker.
ITA is defined as arctan g[(L−50)/b]. If the ITA index increases, the skin appears paler.

Row | Structure (SMILES) | Day 5 (ITA value) [%]
21 | CC1(C)OC2OC3C(O)C(=O)OC3C2O1 (stereo not shown) [Compound Ia, glucuronolactone acetonide] | −2
22 | O=C(CO)CO [DHA, 1,3-dihydroxyacetone, reference compound] | −15
23 | O=C[C@H](O)[C@H]1OC(=O)[C@@H](O)[C@H]1O [Glucuronolactone] | −3

Same assay, conditions: 4% solution, 30 μl on 5 consecutive days, 2 h, day 5

Row | Structure (SMILES) | Day 5 (ITA value) [%]
24 | CC1(C)OC2OC3C(O)C(=O)OC3C2O1 (stereo not shown) [Compound Ia, glucuronolactone acetonide] | −5
25 | O=C(CO)[C@H](O)CO [Erythrulose, reference compound] | −5

Same assay, conditions: identical concentration in the test formulation

Row | Structure (SMILES) | colour effect
26 | CC1(C)OC2OC3C(O)C(=O)OC3C2O1 (stereo not shown) [Compound Ia, glucuronolactone acetonide] | comparable to erythrulose

System: not given
Test: not given
Settings: not given

Row | Structure (SMILES) | melting point [°C]
27 | COc1cc(C2OC3OC4C(O)C(=O)OC4C3O2)ccc1O [Compound Ig, 1,2-O—(R,S)-(4-hydroxy-3-methoxybenzylidene)-α-D-glucofuranurono-6,3-lactone] | 82

— patent publication US9649268B2, “Glucuronolactone derivatives as self-tanning substances” (MERCK PATENT GMBH, priority 2011, dated 2017)
